The values that follow come from patent US5869447A, “Cyclohexapeptides and their mixtures, a process for preparing them, and their use” (Hoechst Aktiengesellschaft, priority 1994, dated 1999).

The structures appear in SMILES notation. ≈ marks a conversion by molar mass, not a printed value. Square brackets hold non-standard residues; d marks the D form. Peptide text beside a SMILES is read from it. Hyp = O=C(O)[C@@H]1C[C@@H](O)CN1

This experiment has as its system IL-4 receptor (receptor/Fc fusion protein). Description: Specific inhibition of IL-4 binding in cell-free binding assays (IC50 table). Conditions: cell-free IL-4 binding assay, biotinylated ligand 100 ng/ml, PBSA with 5% DMSO; table does not say whether huIL-4 or muIL-4 test. The text has this: Specific inhibition of IL-4 Binding in Cell-free Binding Assays.
EP 488 170 A1, which is incorporated herein by reference, discloses cell-free binding tests. For carrying them out, recombinant chimeric proteins were used which comprise the extracellular region of what are normally membrane-located receptors on to whose carboxyl terminus has been fused the Fc region of a heavy immunoglobulin chain composed of hinge, CH2 and CH3 domains. These so-called receptor/Fc fusion proteins can be bound, while retaining the specific receptor binding activity, to solid phases which have previously been coated, for example, with monoclonal antibodies directed against the Fc moiety. For this example, Nunc® type B ELISA plates were used as the solid phase. Receptor/Fc fusion proteins, dissolved in PBS containing 10 mg/ml BSA (PBSA), were bonded to these pre-treated plates (huIL-4R/Fc: 500 ng/ml; muIL-4R/Fc: 250 ng/ml; huIL-lR/Fc: 125 ng/ml; at room temperature for 1 h). […] The plates were incubated at room temperature for 1 h in PBSA containing 5% DMSO. After having been washed, the plates were incubated at room temperature for 20 min with streptavidin/peroxidase (Amersham, 1:2000 in PBSA). The bound peroxidase was detected after the plates had been washed repeatedly in a solution of tetramethylbenzidine substrate (Behringwerke). The extinction at 450 nm, which directly reflects the quantity of the biotinylated ligand bound to the receptor, was measured after the plates had been incubated for 30 min. For FIGS. 1-3, the measured extinction signal was plotted against the concentration of the competing agent with the 100% value being the extinction which was measured in the absence of any competing agent.

For `CC(C)[C@@H]1NC(=O)[C@H](Cc2ccc(O)cc2)NC(=O)[C@@H](C)NC(=O)[C@H](C(C)C)NC(=O)[C@H](Cc2ccc(O)cc2)NC(=O)[C@H](CCCNC(=N)N)NC1=O` [cyclo(Tyr--Val--Arg--Tyr--Val--(D)--Ala), cyclo(Tyr-Val-Arg-Tyr-Val-(D)-Ala)] (cyclo(RYV[dA]YV)), the IC50 (as a rule, the concentration needed to halve the response being measured) was 96.6 µg/mL (≈ 128 µM). The result for `CC(C)[C@@H]1NC(=O)[C@H](Cc2ccc(O)cc2)NC(=O)[C@@H](C)NC(=O)[C@H](C(C)C)NC(=O)[C@H](Cc2ccc(O)cc2)NC(=O)[C@H]([C@@H](C)O)NC1=O` [cyclo(Tyr--Val--Thr--Tyr--Val--(D)--Ala), cyclo(Tyr-Val-Thr-Tyr-Val-(D)-Ala)] (cyclo(TYV[dA]YV)) reads 92.0 µg/mL (≈ 132 µM).

For the molecule `CC(C)[C@@H]1NC(=O)[C@H](Cc2ccc(O)cc2)NC(=O)[C@@H]2C[C@@H](O)CN2C(=O)[C@H](C(C)C)NC(=O)[C@H](Cc2ccc(O)cc2)NC(=O)[C@@H](C)NC1=O` [cyclo(Tyr--Val--Hyp--Tyr--Val--(D)--Ala), cyclo(Tyr-Val-Hyp-Tyr-Val-(D)-Ala)] (cyclo([Hyp]YV[dA]YV)), the half-maximal inhibitory concentration (IC50) was determined as 17.4 µg/mL (≈ 24.5 µM).

`CC[C@H](C)[C@@H]1NC(=O)[C@H](C(C)C)NC(=O)[C@H](Cc2ccc(O)cc2)NC(=O)[C@@H](C)NC(=O)[C@H](C(C)C)NC(=O)[C@H](Cc2ccc(O)cc2)NC1=O` [cyclo(Tyr--Val--Ile--Tyr--Val--(D)--Ala), cyclo(Tyr-Val-Ile-Tyr-Val-(D)-Ala)] (cyclo(IYV[dA]YV)): the half-maximal inhibitory concentration (IC50) was found to be 62.5 µg/mL (≈ 88.2 µM).

In turn, `CC(C)C[C@@H]1NC(=O)[C@H](C(C)C)NC(=O)[C@H](Cc2ccc(O)cc2)NC(=O)[C@@H](C)NC(=O)[C@H](C(C)C)NC(=O)[C@H](Cc2ccc(O)cc2)NC1=O` [cyclo(Tyr--Val--Leu--Tyr--Val--(D)--Ala), cyclo(Tyr-Val-Leu-Tyr-Val-(D)-Ala)] (cyclo(LYV[dA]YV)) gave an IC50 of 41.3 µg/mL (≈ 58.3 µM). Molecule `CC(C)[C@@H]1NC(=O)[C@H](C)NC(=O)[C@H](Cc2ccc(O)cc2)NC(=O)[C@H](C(C)C)NC(=O)[C@@H](C)NC(=O)[C@H](Cc2ccc(O)cc2)NC1=O` [cyclo(Val--Tyr--Ala--Val--Tyr--(D)--Ala), cyclo(Val-Tyr-Ala-Val-Tyr-(D)-Ala)] (cyclo(AVY[dA]VY)) returned an IC50 of 16.7 µg/mL (≈ 25 µM). Consider `CC(C)[C@@H]1NC(=O)[C@H](Cc2ccc(O)cc2)NC(=O)[C@@H](C)NC(=O)[C@H](C(C)C)NC(=O)[C@H](Cc2ccc(O)cc2)NC(=O)[C@H](C)NC1=O` [cyclo(Tyr--Val--Ala--Tyr--Val--(D)--Ala), cyclo(Tyr-Val-Ala-Tyr-Val-(D)-Ala)] (cyclo(AYV[dA]YV)), for which the half-inhibitory concentration (IC50) stood at 8.3 µg/mL (≈ 12.4 µM).
